Measured values reported in publication PMC5218480 (PLoS ONE, 2017).

Test system: MV-4-11 cells
Test: Gene expression microarray analysis (Affymetrix PrimeView) and GSEA
Type: cell-based, human
Set-up: RFU PODN (11730768_x_at) / Fold change /veh PODN (11730768_x_at) / RFU LINC00158 (11744669_a_at) / Fold change /veh LINC00158 (11744669_a_at) / RFU DUSP10 (11751237_a_at) / Fold change /veh DUSP10 (11751237_a_at) / RFU ID3 (11757404_x_at) / Fold change /veh ID3 (11757404_x_at) / RFU PLEKHG5 (11737974_s_at) / Fold change /veh PLEKHG5 (11737974_s_at) / RFU LRRC4B (11730491_at) / Fold change /veh LRRC4B (11730491_at) / RFU GIMAP4 (11747438_a_at) / Fold change /veh GIMAP4 (11747438_a_at) / RFU KRT8 (11758183_x_at) / Fold change /veh KRT8 (11758183_x_at) / RFU CNN1 (11734310_a_at) / Fold change /veh CNN1 (11734310_a_at) / RFU VPS37D (11726825_at) / Fold change /veh VPS37D (11726825_at) / RFU C10orf10 (11716522_x_at) / Fold change /veh C10orf10 (11716522_x_at) / RFU KIR2DL2 /// KIR2DL4 /// KIR2DL5A /// KIR2DL5B /// KIR2DS1 /// KIR2DS2 /// KIR2DS3 /// KIR2DS4 /// KIR3DL3 /// KIR3DL3 /// KIR3DS1 (11738374_at) / Fold change /veh KIR2DL2 /// KIR2DL4 /// KIR2DL5A /// KIR2DL5B /// KIR2DS1 /// KIR2DS2 /// KIR2DS3 /// KIR2DS4 /// KIR3DL3 /// KIR3DL3 /// KIR3DS1 (11738374_at) / RFU C1QL1 (11718748_at) / Fold change /veh C1QL1 (11718748_at) / RFU TMPRSS4 (11747572_a_at) / Fold change /veh TMPRSS4 (11747572_a_at) / RFU HAMP (11756126_x_at) / Fold change /veh HAMP (11756126_x_at) / RFU RNFT2 (11725882_a_at) / Fold change /veh RNFT2 (11725882_a_at) / RFU NR4A2 (11747474_a_at) / Fold change /veh NR4A2 (11747474_a_at) / RFU ABCC12 (11746883_a_at) / Fold change /veh ABCC12 (11746883_a_at) / RFU TMEM136 (11760407_x_at) / Fold change /veh TMEM136 (11760407_x_at) / RFU CLDN22 /// WWC2 (11732394_at) / Fold change /veh CLDN22 /// WWC2 (11732394_at) / RFU HLA-DPB1 (11760878_x_at) / Fold change /veh HLA-DPB1 (11760878_x_at) / RFU SPINT1 (11716480_a_at) / Fold change /veh SPINT1 (11716480_a_at) / RFU GAP43 (11754022_s_at) / Fold change /veh GAP43 (11754022_s_at) / RFU A4GNT (11735810_at) / Fold change /veh A4GNT (11735810_at) / RFU PRB3 (11715151_x_at) / Fold change /veh PRB3 (11715151_x_at) / RFU TUBB4B (11761932_at) / Fold change /veh TUBB4B (11761932_at) / RFU CAPN14 (11732068_a_at) / Fold change /veh CAPN14 (11732068_a_at) / RFU TMCC2 (11721928_a_at) / Fold change /veh TMCC2 (11721928_a_at) / RFU IRGQ (11745062_a_at) / Fold change /veh IRGQ (11745062_a_at) / RFU FAM174B (11720279_a_at) / Fold change /veh FAM174B (11720279_a_at) / RFU TMPRSS4 (11748680_a_at) / Fold change /veh TMPRSS4 (11748680_a_at) / RFU FAM212B (11763350_a_at) / Fold change /veh FAM212B (11763350_a_at) / RFU PLEKHG5 (11743358_a_at) / Fold change /veh PLEKHG5 (11743358_a_at) / RFU ZSCAN30 (11745921_a_at) / Fold change /veh ZSCAN30 (11745921_a_at) / RFU CMKLR1 (11741424_a_at) / Fold change /veh CMKLR1 (11741424_a_at) / RFU LOC101060620 /// MAPK8IP1 (11723275_at) / Fold change /veh LOC101060620 /// MAPK8IP1 (11723275_at) / RFU SPTSSB (11747773_x_at) / Fold change /veh SPTSSB (11747773_x_at) / RFU PRSS12 (11739890_at) / Fold change /veh PRSS12 (11739890_at) / RFU BIN1 (11741810_x_at) / Fold change /veh BIN1 (11741810_x_at) / RFU WNT11 (11732464_a_at) / Fold change /veh WNT11 (11732464_a_at) / RFU C10orf10 (11716521_a_at) / Fold change /veh C10orf10 (11716521_a_at) / RFU C5orf56 (11738089_at) / Fold change /veh C5orf56 (11738089_at) / RFU CYB561 (11721691_x_at) / Fold change /veh CYB561 (11721691_x_at) / RFU ANKRD19P (11752326_a_at) / Fold change /veh ANKRD19P (11752326_a_at) / RFU OR2T12 /// OR2T33 /// OR2T8 (11738714_s_at) / Fold change /veh OR2T12 /// OR2T33 /// OR2T8 (11738714_s_at) / RFU VCAN (11748164_a_at) / Fold change /veh VCAN (11748164_a_at) / RFU JSRP1 (11732532_at) / Fold change /veh JSRP1 (11732532_at) / RFU KRTAP10-11 (11738290_x_at) / Fold change /veh KRTAP10-11 (11738290_x_at) / RFU MYO3A (11730013_a_at) / Fold change /veh MYO3A (11730013_a_at) / RFU EBF3 (11725865_a_at) / Fold change /veh EBF3 (11725865_a_at) / RFU CAMK2N1 (11719241_x_at) / Fold change /veh CAMK2N1 (11719241_x_at) / RFU C5orf56 (11738088_a_at) / Fold change /veh C5orf56 (11738088_a_at) / RFU OLFML3 (11715873_a_at) / Fold change /veh OLFML3 (11715873_a_at) / RFU LOC100653217 /// NTM (11731650_a_at) / Fold change /veh LOC100653217 /// NTM (11731650_a_at) / RFU MAPK11 (11762145_a_at) / Fold change /veh MAPK11 (11762145_a_at) / RFU FIZ1 (11724087_x_at) / Fold change /veh FIZ1 (11724087_x_at) / RFU OASL (11726364_x_at) / Fold change /veh OASL (11726364_x_at) / RFU SOX15 (11748057_x_at) / Fold change /veh SOX15 (11748057_x_at) / RFU CD79A (11719716_a_at) / Fold change /veh CD79A (11719716_a_at) / RFU HIST1H1D (11736915_at) / Fold change /veh HIST1H1D (11736915_at) / RFU CASKIN2 (11723855_a_at) / Fold change /veh CASKIN2 (11723855_a_at) / RFU LOC730098 (11760151_x_at) / Fold change /veh LOC730098 (11760151_x_at) / RFU OR4N2 (11742367_at) / Fold change /veh OR4N2 (11742367_at) / RFU PRRT2 (11749266_a_at) / Fold change /veh PRRT2 (11749266_a_at) / RFU SNX32 (11753110_a_at) / Fold change /veh SNX32 (11753110_a_at) / RFU CDHR5 (11726645_a_at) / Fold change /veh CDHR5 (11726645_a_at) / RFU RCAN1 (11760418_a_at) / Fold change /veh RCAN1 (11760418_a_at) / RFU FAM167A (11723789_a_at) / Fold change /veh FAM167A (11723789_a_at) / RFU FAM26E (11764081_at) / Fold change /veh FAM26E (11764081_at) / RFU ISYNA1 (11749810_s_at) / Fold change /veh ISYNA1 (11749810_s_at) / RFU ACY1 (11761880_at) / Fold change /veh ACY1 (11761880_at) / RFU 11764098_at / Fold change /veh 11764098_at / RFU SAMD14 (11745864_x_at) / Fold change /veh SAMD14 (11745864_x_at) / RFU NPB (11741838_a_at) / Fold change /veh NPB (11741838_a_at) / RFU TMPRSS6 (11731388_a_at) / Fold change /veh TMPRSS6 (11731388_a_at) / RFU KRTAP10-2 (11738614_at) / Fold change /veh KRTAP10-2 (11738614_at) / RFU ARHGAP8 /// PRR5-ARHGAP8 (11727945_x_at) / Fold change /veh ARHGAP8 /// PRR5-ARHGAP8 (11727945_x_at) / RFU KRTAP5-7 /// NADSYN1 (11734609_at) / Fold change /veh KRTAP5-7 /// NADSYN1 (11734609_at) / RFU RASL12 (11751679_a_at) / Fold change /veh RASL12 (11751679_a_at) / RFU CDKN2B (11736163_a_at) / Fold change /veh CDKN2B (11736163_a_at) / RFU PRF1 (11729649_at) / Fold change /veh PRF1 (11729649_at) / RFU, ZNF638 /// ZNF638-IT1 / Fold change vs veh, ZNF638 /// ZNF638-IT1 / RFU, PANK3 / Fold change vs veh, PANK3 / RFU, SH3YL1 / Fold change vs veh, SH3YL1 / RFU, ZEB2 / Fold change vs veh, ZEB2 / RFU, NRIP1 / Fold change vs veh, NRIP1 / RFU, PTTG1IP / Fold change vs veh, PTTG1IP / RFU, CAPN2 / Fold change vs veh, CAPN2 / RFU, MED14 / Fold change vs veh, MED14 / RFU, SNORA58 / Fold change vs veh, SNORA58 / RFU, C1orf63 / Fold change vs veh, C1orf63 / RFU, LRRFIP1 / Fold change vs veh, LRRFIP1 / RFU, NDUFAF7 / Fold change vs veh, NDUFAF7 / RFU, SLC12A2 / Fold change vs veh, SLC12A2 / RFU, IBTK / Fold change vs veh, IBTK / RFU, ESF1 / Fold change vs veh, ESF1 / Fold change vs veh, TMEM50B / RFU, TAOK1 / Fold change vs veh, TAOK1 / RFU, ACBD3 / Fold change vs veh, ACBD3 / RFU, TMA16 / Fold change vs veh, TMA16 / RFU, RWDD3 / Fold change vs veh, RWDD3 / RFU, BCAT1 / Fold change vs veh, BCAT1 / RFU, EDEM3 / Fold change vs veh, EDEM3 / RFU, TMEM33 / Fold change vs veh, TMEM33 / RFU, WDR75 / Fold change vs veh, WDR75 / RFU, AHCTF1 / Fold change vs veh, AHCTF1 / RFU, TFRC / Fold change vs veh, TFRC / RFU, ZDHHC17 / Fold change vs veh, ZDHHC17 / RFU, NOM1 / Fold change vs veh, NOM1 / RFU, ARL8B / Fold change vs veh, ARL8B / RFU, ZBTB11 / Fold change vs veh, ZBTB11 / RFU, TAMM41 / Fold change vs veh, TAMM41 / RFU, KIAA1704 /// LOC100996395 / Fold change vs veh, KIAA1704 /// LOC100996395 / RFU, ING1 / Fold change vs veh, ING1 / RFU, TRMT61B / Fold change vs veh, TRMT61B / RFU, FUBP3 / Fold change vs veh, FUBP3 / RFU, TP53 / Fold change vs veh, TP53 / RFU, TNKS2 / Fold change vs veh, TNKS2 / RFU, ZFP14 / Fold change vs veh, ZFP14 / RFU, ACTR2 / Fold change vs veh, ACTR2 / RFU, PPP3R1 / Fold change vs veh, PPP3R1 / RFU, PIK3R1 / Fold change vs veh, PIK3R1 / RFU, HNRNPA1 / Fold change vs veh, HNRNPA1 / RFU, RNF170 / Fold change vs veh, RNF170 / RFU, ZNF28 / Fold change vs veh, ZNF28 / RFU, RNGTT / Fold change vs veh, RNGTT / RFU, OGT / Fold change vs veh, OGT / RFU, BRD1 / Fold change vs veh, BRD1 / RFU, MARS / Fold change vs veh, MARS / RFU, ZNF655 / Fold change vs veh, ZNF655 / RFU, FAHD1 / Fold change vs veh, FAHD1 / RFU, BDP1 / Fold change vs veh, BDP1 / RFU, LRRCC1 / Fold change vs veh, LRRCC1 / RFU, ARID1A / Fold change vs veh, ARID1A / RFU, ZNF146 / Fold change vs veh, ZNF146 / RFU, ZNF330 / Fold change vs veh, ZNF330 / RFU, GPN3 / Fold change vs veh, GPN3 / RFU, C9orf123 / Fold change vs veh, C9orf123 / RFU, N4BP2L2 / Fold change vs veh, N4BP2L2 / RFU, ARFIP1 / Fold change vs veh, ARFIP1 / RFU, FAM179B / Fold change vs veh, FAM179B / RFU, BCL10 / Fold change vs veh, BCL10 / RFU, UHRF1BP1L / Fold change vs veh, UHRF1BP1L / RFU, BET1 / Fold change vs veh, BET1 / RFU, CNOT2 / Fold change vs veh, CNOT2 / RFU, ZNF268 / Fold change vs veh, ZNF268 / Fold change vs veh, ZNF507 / RFU, DGCR2 / Fold change vs veh, DGCR2 / RFU, WDSUB1 / Fold change vs veh, WDSUB1 / Fold change vs veh, HSP90B1 /// MIR3652 / RFU, ADSS / Fold change vs veh, ADSS / RFU, GK / Fold change vs veh, GK / RFU, ZNF148 / Fold change vs veh, ZNF148 / RFU, TAF9 / Fold change vs veh, TAF9 / RFU, SLC1A5 / Fold change vs veh, SLC1A5 / RFU, SLMO2 / Fold change vs veh, SLMO2 / RFU, ABCC4 / Fold change vs veh, ABCC4 / RFU, LOC101060439 /// RAP1B / Fold change vs veh, LOC101060439 /// RAP1B / RFU, RFX7 / Fold change vs veh, RFX7 / RFU, GTPBP10 / Fold change vs veh, GTPBP10 / RFU, CNEP1R1 / Fold change vs veh, CNEP1R1 / RFU, BIVM-ERCC5 /// ERCC5 / Fold change vs veh, BIVM-ERCC5 /// ERCC5 / RFU, ILF3 / Fold change vs veh, ILF3 / RFU 11762660_at / Fold change /veh 11762660_at / RFU VCAN (11757783_s_at) / Fold change /veh VCAN (11757783_s_at) / RFU DDX43 (11728927_at) / Fold change /veh DDX43 (11728927_at) / RFU KRT8 (11758188_x_at) / Fold change /veh KRT8 (11758188_x_at) / RFU NKD1 (11759106_at) / Fold change /veh NKD1 (11759106_at) / RFU SRD5A1 (11742802_a_at) / Fold change /veh SRD5A1 (11742802_a_at) / RFU TPSAB1 /// TPSB2 (11721975_s_at) / Fold change /veh TPSAB1 /// TPSB2 (11721975_s_at) / RFU GSTM3 (11746129_a_at) / Fold change /veh GSTM3 (11746129_a_at) / RFU IL23R (11737362_x_at) / Fold change /veh IL23R (11737362_x_at) / RFU TMEM51 (11727254_a_at) / Fold change /veh TMEM51 (11727254_a_at) / RFU PIWIL2 (11732686_x_at) / Fold change /veh PIWIL2 (11732686_x_at) / RFU ORM1 (11744905_x_at) / Fold change /veh ORM1 (11744905_x_at) / RFU CCDC152 (11743942_at) / Fold change /veh CCDC152 (11743942_at) / RFU ECM1 (11717891_a_at) / Fold change /veh ECM1 (11717891_a_at) / RFU IL23R (11748794_a_at) / Fold change /veh IL23R (11748794_a_at) / RFU TNFAIP8L3 (11732012_x_at) / Fold change /veh TNFAIP8L3 (11732012_x_at) / RFU MBOAT4 (11741988_at) / Fold change /veh MBOAT4 (11741988_at) / RFU 11764193_at / Fold change /veh 11764193_at / RFU TMEM53 (11763286_at) / Fold change /veh TMEM53 (11763286_at) / RFU MAGEB2 (11727129_at) / Fold change /veh MAGEB2 (11727129_at) / RFU TMEM200A (11744735_a_at) / Fold change /veh TMEM200A (11744735_a_at) / RFU CCDC152 (11751479_a_at) / Fold change /veh CCDC152 (11751479_a_at) / RFU FAM211A (11726209_a_at) / Fold change /veh FAM211A (11726209_a_at) / RFU RGS16 (11746705_a_at) / Fold change /veh RGS16 (11746705_a_at) / RFU VCAN (11755009_s_at) / Fold change /veh VCAN (11755009_s_at) / RFU RHOB (11743442_s_at) / Fold change /veh RHOB (11743442_s_at) / RFU RGS16 (11720943_a_at) / Fold change /veh RGS16 (11720943_a_at) / RFU RGS16 (11720944_at) / Fold change /veh RGS16 (11720944_at) / RFU, VPS4B / Fold change vs veh, VPS4B / RFU, CREB1 / Fold change vs veh, CREB1 / RFU, DNAJC13 / Fold change vs veh, DNAJC13 / RFU, GNAQ / Fold change vs veh, GNAQ / RFU, CDK5R1 / Fold change vs veh, CDK5R1 / RFU, ZRANB3 / Fold change vs veh, ZRANB3 / RFU, CUL4A / Fold change vs veh, CUL4A / RFU, CCNY / Fold change vs veh, CCNY / RFU, UFL1 / Fold change vs veh, UFL1 / RFU, COG3 / Fold change vs veh, COG3 / RFU, DIAPH2 / Fold change vs veh, DIAPH2 / RFU, SKA2 / Fold change vs veh, SKA2 / RFU, AFF3 / Fold change vs veh, AFF3 / RFU, LMF1 / Fold change vs veh, LMF1 / RFU, IPO11 / Fold change vs veh, IPO11 / RFU, DFFB / Fold change vs veh, DFFB / RFU, FOXP1 / Fold change vs veh, FOXP1 / RFU, CARD8 / Fold change vs veh, CARD8 / RFU, STRN3 / Fold change vs veh, STRN3 / RFU, ADK / Fold change vs veh, ADK / RFU, RASSF2 / Fold change vs veh, RASSF2 / RFU, WIPF1 / Fold change vs veh, WIPF1 / RFU, LARP1B / Fold change vs veh, LARP1B / RFU, RASA1 / Fold change vs veh, RASA1 / RFU, RB1 / Fold change vs veh, RB1 / RFU, PPFIA1 / Fold change vs veh, PPFIA1 / RFU, MAT2A / Fold change vs veh, MAT2A / RFU, CCT5 / Fold change vs veh, CCT5 / RFU, WDR92 / Fold change vs veh, WDR92 / RFU, CUX1 / Fold change vs veh, CUX1 / RFU, TTC7A / Fold change vs veh, TTC7A / RFU, TMEM135 / Fold change vs veh, TMEM135 / RFU, DEPTOR / Fold change vs veh, DEPTOR / RFU, CPM / Fold change vs veh, CPM / RFU, DNAJB6 / Fold change vs veh, DNAJB6 / RFU, CACNA2D3 / Fold change vs veh, CACNA2D3 / RFU, DTX4 / Fold change vs veh, DTX4 / RFU, TFCP2 / Fold change vs veh, TFCP2 / RFU, GMCL1 /// GMCL1P1 / Fold change vs veh, GMCL1 /// GMCL1P1 / RFU, AEBP2 / Fold change vs veh, AEBP2 / RFU, SNHG1 /// SNORD22 /// SNORD25 /// SNORD26 /// SNORD27 /// SNORD28 /// SNORD29 /// SNORD31 / Fold change vs veh, SNHG1 /// SNORD22 /// SNORD25 /// SNORD26 /// SNORD27 /// SNORD28 /// SNORD29 /// SNORD31 / Fold change (Aza/veh), C12orf56 (ProbeSet 11735607_a_at) / Fold change (ACY-1035/veh), C12orf56 (ProbeSet 11735607_a_at) / Fold change (Aza/veh), FGFR1OP (ProbeSet 11751329_s_at) / Fold change (ACY-1035/veh), FGFR1OP (ProbeSet 11751329_s_at) / Fold change (Aza/veh), VPS36 (ProbeSet 11739960_a_at) / Fold change (ACY-1035/veh), VPS36 (ProbeSet 11739960_a_at) / RFU SYPL1 (11715823_x_at) / Fold change /veh SYPL1 (11715823_x_at) / RFU IGFBP7 (11715501_s_at) / Fold change /veh IGFBP7 (11715501_s_at) / RFU REEP3 (11722064_at) / Fold change /veh REEP3 (11722064_at) / RFU IGLL1 (11728026_x_at) / Fold change /veh IGLL1 (11728026_x_at): dose or concentration left out as unconfirmed
Conditions: ProbeSet 11718977_a_at; LIST B

## Nc1ccc(-c2cccs2)cc1NC(=O)c1ccc2c(c1)cc(C1CC1)n2CCN1CCOCC1 [ACY-1035]
  RFU, CAPN2: 162.48 RFU
